Where two headings read alike, the source gives them in different places.
Legend:
[1] = test system: Trypanosoma brucei Lister 427 strain, bloodstream form; assay: Assay for proliferation of kinetoplastid parasite Trypanosoma brucei (Cell Titer Glo, 48 hours); type: cell-based; conditions: Trypanosoma brucei, read-out: T. brucei EC50
How it was run: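 Bloodstream-form T. brucei Lister 427 in HMI-9 medium was exposed to compound (DMSO vehicle) for 48 hours at 37° C, 5% CO2. Parasite growth was read as ATP by CellTiter-Glo luminescence, with EC50 calculated from percent inhibition.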

[2] = test system: Trypanosoma cruzi amastigotes (Tulahuen strain expressing Lac-Z) cultured in 3T3 fibroblast cells; assay: microbe, parasite or virus in culture; type: cell-based; conditions: Trypanosoma cruzi, TULAHUEN, Fibroblast, T. cruzi amastigotes in 3T3 fibroblast cells, read-out: T cruzi EC50
[3] = test system: Leishmania donovani axenic amastigote parasites; assay: Leishmania donovani axenic amastigote proliferation assay (Cell TiterGlo luminescence, 2 day incubation); type: cell-based; conditions: Leishmania donovani, read-out: L. donovani amastigotes EC50
[4] = test system: L. donovani HU3 strain in mouse peritoneal macrophages; assay: Assay for proliferation of Leishmania parasites in infected mouse peritoneal macrophages (SybrGreen staining, high-content imaging, 5 days); type: cell-based, Leishmania donovani; conditions: Leishmania donovani, Peritoneal macrophage, L. donovani in mouse peritoneal macrophages, read-out: L. donovani Macrophage EC50
[5] = T. brucei Lister 427 bloodstream form
[6] = T. brucei Lister 427 bloodstream form, inhibition of proliferation
[7] = axenic amastigotes, inhibition of proliferation

| Structure (SMILES) | EC50 [1, 5] [nM] | EC50 [2] [nM] | EC50 ([3]; L. donovani axenic amastigotes) [nM] | EC50 [4] [nM] | EC50 [1, 6] [nM] | EC50 ([2]; inhibition of proliferation) [nM] | EC50 [3, 7] [nM] | EC50 ([4]; inhibition of proliferation) [nM] | EC50 [1] [nM] |
| --- | --- | --- | --- | --- | --- | --- | --- | --- | --- |
| CC(C)OC(=O)Nc1ccc(F)c(-c2cn3cc(-c4cccnc4)cnc3n2)c1 [Compound 399] | 103 | 80 | 274 | 646 |  |  |  |  |  |
| CC(C)OC(=O)Nc1cnc2nc(-c3cc(Nc4ccccn4)ccc3F)cn2c1 [Compound 484, isopropyl (2-(2-fluoro-5-(pyridin-2-ylamino)phenyl)imidazo[1,2-a]pyrimidin-6-yl)carbamate] | 1360 | 361 | 1480 | 9110 |  |  |  |  |  |
| CON(C)C(=O)Nc1ccc(Cl)c(-c2cn3cc(NC(=O)OC(C)C)cnc3n2)c1 [Compound 214] |  |  |  |  | 40 | 154 | 90 | 785 |  |
| Nc1cnc2nc(-c3cc(NC(=O)c4ccc(F)o4)ccc3Cl)cn2c1 [Compound 577, N-(3-(6-aminoimidazo[1,2-a]pyrimidin-2-yl)-4-chlorophenyl)-5-fluorofuran-2-carboxamide] | 1350 | 2340 | 2990 | > 50000 |  |  |  |  |  |
| CC(=O)Nc1cnc2nc(-c3cc(NC(=O)c4cnc(C)o4)ccc3F)cn2c1 [Compound 206] |  |  |  |  | > 50000 | > 20000 | 3190 | > 50000 |  |
| CC(C)OC(=O)Nc1cnc2nc(-c3cc(NC(=O)c4ccco4)ccc3Cl)cn2c1 [Compound 244] |  |  |  |  | 65 | 55 | 152 | 345 |  |
| CC(C)OC(=O)Nc1cnc2nc(-c3cc(Nc4nccc5ccoc45)ccc3F)cn2c1 [Compound 497] | 496 | 112 | 641 | 1280 |  |  |  |  |  |
| CN(C)C(=O)Nc1ccc(F)c(-c2cn3cc(C(F)(F)F)cnc3n2)c1 [Compound 298] |  |  |  |  | 355 | 525 | 781 | 2230 |  |
| CC(C)OC(=O)Nc1ccc(F)c(-c2cn3cc(C(F)(F)F)cnc3n2)c1 [Compound 301, isopropyl (4-fluoro-3-(6-(trifluoromethyl)imidazo[1,2-a]pyrimidin-2-yl)phenyl)carbamate] |  |  |  |  |  | 444 | 727 | > 32400 | 307 |
| CC(C)OC(=O)Nc1cnc2nc(-c3cc(NC(=O)c4cnco4)ccc3Cl)cn2c1 [Compound 52] |  |  |  |  | 571 | 1280 | 261 | 2740 |  |
| Cc1nc(C)c(C(=O)Nc2ccc(F)c(-c3cn4cc(C5CCN(C(=O)OC(C)(C)C)CC5)cnc4n3)c2)o1 [Compound 425, tert-butyl 4-(2-(5-(2,4-dimethyloxazole-5-carboxamido)-2-fluorophenyl)imidazo[1,2-a]pyrimidin-6-yl)piperidine-1-carboxylate] | 97 | 50 | 140 | 198 |  |  |  |  |  |
| Cc1nc(C)c(C(=O)Nc2ccc(F)c(-c3cn4cc(NC(=O)C5(C#N)CC5)cnc4n3)c2)o1 [Compound 153] |  |  |  |  | 135 | 3400 | 348 | 901 |  |
| Cc1nc(C)c(C(=O)Nc2ccc(F)c(-c3cn4cc(NC5=NC(C)(C)CO5)cnc4n3)c2)o1 [Compound 505] | 845 | 5000 | 1170 | 3480 |  |  |  |  |  |
| CC(C)OC(=O)Nc1cnc2nc(-c3cc(NC(=O)c4cccs4)ccc3F)cn2c1 [Compound 75] |  |  |  |  | 482 | 150 | 581 | > 6020 |  |
| Cc1nc(C)c(C(=O)Nc2ccc(F)c(-c3cn4cc(NC(=O)c5nc(NC(=O)OC(C)(C)C)cn5C)cnc4n3)c2)o1 [Compound 176] |  |  |  |  | > 50000 | > 20000 | > 25000 | > 50000 |  |
| Cc1nc(C)c(C(=O)Nc2ccc(F)c(-c3cn4cc(-c5cccnc5)cnc4n3)c2)o1 [Compound 395] | 45 | 153 | 109 | 187 |  |  |  |  |  |
| Cc1nc(C)c(C(=O)Nc2ccc(F)c(-c3cn4cc(NCc5ncc[nH]5)cnc4n3)c2)o1 [Compound 479] | 41900 | > 20000 | > 22800 | > 50000 |  |  |  |  |  |
| O=C(Nc1cnc2nc(-c3cc(NC(=O)N4CCCC4)ccc3F)cn2c1)c1ccccn1 [Compound 147] |  |  |  |  | 19 | 65 | 74 | 67 |  |
| CC(C)OC(=O)Nc1cnc2nc(-c3cc(NC(=O)C4CC(=O)C4)ccc3F)cn2c1 [Compound 101] |  |  |  |  | 3490 | 9950 | 636 | 2520 |  |
| CC(C)Nc1cnc2nc(-c3cc(NC(=O)N4CCC4)ccc3F)cn2c1 [Compound 564] | 56 | 204 | 212 | 290 |  |  |  |  |  |
| COCC(=O)Nc1ccc(F)c(-c2cn3cc(NC(=O)OC(C)C)cnc3n2)c1 [Compound 106] |  |  |  |  | 2200 | 3450 | 2740 | 24800 |  |

Reference: patent publication US20160045505A1, “COMPOUNDS AND COMPOSITIONS FOR THE TREATMENT OF PARASITIC DISEASES” (NOVARTIS AG, priority 2013, published 2016)
